Assay results as given in patent EP4786484A1, “CYCLIC PEPTIDE COMPOUND AND USE THEREOF” (Shenzhen Zhongge Biological Technology Co., Ltd., priority 2023, dated 2026).
Where “and” joins values, the source holds several entries; their conditions need not be identical. Equal entries are not always repeated. Residues, ends and D or L forms follow the SMILES beside them.

Columns and labels:
[1] = tested on: Fibroblasts of human origin; experiment: Fibroblast cytotoxicity test (MTT); format: cell-based; details: Positive control 10% DMSO, 24 h, 1440 min
Description: A. Fibroblast cytotoxicity test
Test materials: Fibroblasts of human origin (Guangdong Boxi Biotechnology Co., Ltd., Lot No. Fb20081902), DMEM culture medium (Gibco, 23042301, expiration date on 230522), PBS (Solarbio, P1010), MTT (Sigma, M5655), DMSO (Sigma, D4540-1L), CO2 incubator (Thermo, 150I), super-clean bench (AIRTECH, SW-CJ-1F), inverted microscope (Olympus, CKX53).
Test methods: • 1) Cell inoculation: After cell resuscitation, the cells were inoculated into 96-well plates when the plating rate reached around 60%, and were incubated overnight in an incubator (37°C, 5% CO2). • 2) Test grouping: The blank group, solvent control group, positive control group, and sample group were set for the test. In the sample group, 7 concentration gradients were set for each sample and 3 duplicate wells were set for each concentration gradient. • 3) Formulation of solutions: Sample working solutions at different concentrations were formulated based on the test concentrations of 0.0781 µM, 0.1563 µM, 0.3125 µM, 0.625 µM, 1.25 µM, 2.5 µM, and 5 µM. • 4) Administration: Administration was performed when the cell plating rate in the 96-well plates reached 50% to 60%. 200 µL of culture medium per well was added for the solvent control group; 200 µL of culture medium containing 10% DMSO per well was added for the positive control group; 200 µL of culture medium containing the sample at a corresponding concentration per well was added for the sample group; The blank group had no cell inoculation, for which only 200 µL of cell culture medium was added. After the administration was complete, the 96-well plates were incubated in an incubator (37°C, 5% CO2) for 24 h. • 5) Detection: After 24 h of cell incubation and culture, the supernatant was discarded, and MTT working solution (0.5 mg/mL) was added. Incubation was performed at 37°C for 4 h in the dark. After the incubation was completed, the supernatant was discarded and 150 µL DMSO was added to each well. The OD value was read at 490 nm. • 6) Calculation of relative viability of cells: Calculation was performed according to the formula below: Relative viability of cells = (Sample well OD−Blank well OD)/(Solvent control well OD−Blank well OD) × 100%. [formula]

hyaluronic acid (HA) = experiment: Hyaluronic acid (HA) elevation effect in fibroblasts (ELISA); format: cell-based, human; parameters: HA elevation effect in the fibroblasts: unit not given here; details: 1 µM, 24 h; for HA elevation effect in the fibroblasts: ELISA, Blank control (BC) 1402.44; for hyaluronic acid (HA) content compared to the BC: result in words
Text: (§1) B. Collagen I (type I collagen) elevation effect in fibroblasts, hyaluronic acid (HA) elevation effect in fibroblasts, and elastin (ELN) elevation effect in fibroblasts
(§2) Test materials: Fibroblasts of human origin (Guangdong Boxi Biotechnology Co., Ltd., Lot No. Fb20081902), DMEM culture medium (Gibco, 23042301, expiration date 230522), PBS (Solarbio, P1010), TGF-β1 (Peprotech, 230504), Collagen I ELISA Kit (Cusabio, B21025824), Elastin ELISA kit (Abcam, GR3446070-2), HA ELISA kit (RD, P325066). CO2 incubator (Thermo, 1501), super-clean bench (AIRTECH, SW-CJ-1F), microplate reader (BioTek, Epoch).
(§3) Test methods: • 1) Inoculation: After cell resuscitation, the cells were inoculated into 6-well plates when the plating rate reached around 60%, and were incubated overnight in an incubator (37°C, 5% CO2). • 2) Formulation of solutions: The cyclic peptide compounds in the sample group, PC2 (Biotinoyl-GHK, [drawing 2] ) and PC3 [drawing 3] in the positive reference group were all at the concentration of 1 µM, and the test substance working solutions were formulated. Only the cell culture medium was added for the blank control group (BC). • 3) Administration: When the cell plating rate in the 6-well plates reached 40% to 60%, administration was performed at 2 mL per well. 3 duplicate wells were set for each group. Incubation was performed in an incubator (37°C, 5% CO2) for 24 h. • 4) ELISA assay: The ELISA assay was performed according to the instructions of the ELISA kit, with the detection indicators being Collagen I elevation effect in the fibroblasts, HA elevation effect in the fibroblasts, and elastin elevation effect in the fibroblasts.

elastin (ELN) = experiment: Elastin (ELN) elevation effect in fibroblasts (ELISA); format: cell-based, human; parameters: Elastin elevation effect in the fibroblasts: unit not given here; details: 1 µM, 24 h; for Elastin elevation effect in the fibroblasts: ELISA, Blank control (BC) 756.52; for elastin content compared to the BC: result in words
Text: as §1, §2, §3

[2] = tested on: Collagen I (type I collagen); experiment: Collagen I elevation effect in fibroblasts (ELISA); format: cell-based, human; parameters: Collagen I elevation effect in the fibroblasts: unit not given here; details: 1 µM, 24 h; for Collagen I elevation effect in the fibroblasts: ELISA, Blank control (BC) 35.6; for type I collagen (Collagen I) content compared to the BC: result in words
Text: as §1, §2, §3

SMILES	Relative viability of cells [1]	HA elevation effect in the fibroblasts (hyaluronic acid (HA))	hyaluronic acid (HA) content compared to the BC (hyaluronic acid (HA))	Elastin elevation effect in the fibroblasts (elastin (ELN))	elastin content compared to the BC (elastin (ELN))	Collagen I elevation effect in the fibroblasts [2]	type I collagen (Collagen I) content compared to the BC [2]
C[S+](C)[O-] [10% DMSO, DMSO]	0.30% and 1.87% and 1.62% and 1.17% and 0.61% and 2.07% and 0.54% and 0.43%						
C[C@@H]1NC(=O)[C@H](CCCCN)NC(=O)[C@H](Cc2c[nH]cn2)NC(=O)CNC(=O)[C@@H]2CCCN2C(=O)[C@H](Cc2ccccc2)NC1=O [compound 52] (cyclo(AFPGHK))		2900.83	significant increase	1043.27	significant increase		
CC[C@H](C)[C@@H]1NC(=O)[C@H](CCCCN)NC(=O)[C@H](Cc2c[nH]cn2)NC(=O)CNC(=O)[C@@H]2CCCN2C(=O)[C@H](CC(C)C)NC1=O [compound 196] (cyclo(GHKILP))		2305.13	significant increase	1175.6	significant increase		
CC[C@H](C)[C@@H]1NC(=O)[C@H](CCCCN)NC(=O)[C@H](Cc2c[nH]cn2)NC(=O)CNC(=O)[C@@H]2CCCN2C(=O)[C@H](CCSC)NC1=O [compound 205] (cyclo(GHKIMP))		2641.21	significant increase	1074.17	significant increase	49.25	significant increase
CC[C@H](C)[C@@H]1NC(=O)[C@H](CCCCN)NC(=O)[C@H](Cc2c[nH]cn2)NC(=O)CNC(=O)[C@@H]2CCCN2C(=O)[C@H](Cc2ccccc2)NC1=O [compound 214] (cyclo(FPGHKI))		1965.3	significant increase	1050.82	significant increase	42.51	significant increase
CC[C@H](C)[C@@H]1NC(=O)[C@H](CCCCN)NC(=O)[C@H](Cc2c[nH]cn2)NC(=O)CNC(=O)[C@@H]2CCCN2C(=O)[C@H](Cc2c[nH]c3ccccc23)NC1=O [compound 232] (cyclo(GHKIWP))				1001.84	significant increase	67.93	significant increase
CC(C)C[C@@H]1NC(=O)[C@H](CCCCN)NC(=O)[C@H](Cc2c[nH]cn2)NC(=O)CNC(=O)[C@@H]2CCCN2C(=O)[C@H](C)NC1=O [compound 250] (cyclo(APGHKL))		2142.56	significant increase	1051.64	significant increase	55.85	significant increase
CC[C@H](C)[C@@H]1NC(=O)[C@H](CC(C)C)NC(=O)[C@H](CCCCN)NC(=O)[C@H](Cc2c[nH]cn2)NC(=O)CNC(=O)[C@@H]2CCCN2C1=O [compound 268] (cyclo(GHKLIP))						61.46	significant increase
CC(C)C[C@@H]1NC(=O)[C@H](CCCCN)NC(=O)[C@H](Cc2c[nH]cn2)NC(=O)CNC(=O)[C@H](C)NC(=O)[C@H](Cc2ccccc2)NC1=O [compound 289] (cyclo(AGHKLF))		1978.48	significant increase	1034.59	significant increase	41	significant increase
CC[C@H](C)[C@@H]1NC(=O)[C@H](Cc2ccccc2)NC(=O)[C@H](CC(C)C)NC(=O)[C@H](CCCCN)NC(=O)[C@H](Cc2c[nH]cn2)NC(=O)CNC1=O [compound 291] (cyclo(FIGHKL))		2477.91	significant increase	1177.19	significant increase		
CC(C)C[C@@H]1NC(=O)[C@H](CCCCN)NC(=O)[C@H](Cc2c[nH]cn2)NC(=O)CNC(=O)[C@H](C(C)C)NC(=O)[C@H](Cc2ccccc2)NC1=O [compound 297] (cyclo(FVGHKL))		2212.6	significant increase	923.52	significant increase	52.28	significant increase
CSCC[C@@H]1NC(=O)[C@H](CCCCN)NC(=O)[C@H](Cc2c[nH]cn2)NC(=O)CNC(=O)[C@@H]2CCCN2C(=O)CNC1=O [compound 340] (cyclo(GHKMGP))				1304.87	significant increase	90.07	significant increase
CC(C)[C@@H]1NC(=O)[C@H](C)NC(=O)[C@H](Cc2ccccc2)NC(=O)[C@H](CCCCN)NC(=O)[C@H](Cc2c[nH]cn2)NC(=O)CNC1=O [compound 414] (cyclo(AVGHKF))		1926.61	significant increase	1124.58	significant increase	40.54	significant increase
CSCC[C@@H]1NC(=O)[C@@H]2CCCN2C(=O)[C@H](C(C)C)NC(=O)[C@H](CCCCN)NC(=O)[C@H](Cc2c[nH]cn2)NC(=O)CNC1=O [compound 707] (cyclo(GHKVPM))						66.21	significant increase
CC(C)[C@@H]1NC(=O)[C@H](CCCCN)NC(=O)[C@H](Cc2c[nH]cn2)NC(=O)CNC(=O)[C@H](Cc2c[nH]c3ccccc23)NC(=O)[C@@H]2CCCN2C1=O [compound 710] (cyclo(GHKVPW))				1207.29	significant increase	110.87	significant increase
